ChEMBL document CHEMBL1777698, “Synthesis and biological evaluation of unique stereodimers of sinomenine analogues as potential inhibitors of NO production” (Bioorg Med Chem, 2011)
Active and inactive are the calls of the source. The calls are words filed in the database; no cut-off is given here.

Tests used:
[1] = tested on: RAW264.7; assay: Cytotoxicity against mouse RAW264.7 cells after 24 hrs by MTT assay; format: cell-based
[2] = tested on: RAW264.7; assay: Inhibition of LPS-induced nitric oxide production in mouse RAW264.7 cells at 100 uM after 24 hrs by Griess reaction relative to control; format: functional; details: for inhibition at 100 µM: Mus musculus, RAW264.7, 24 h
[3] = tested on: RAW264.7; assay: Inhibition of LPS-induced nitric oxide production in mouse RAW264.7 cells at 50 uM after 24 hrs by Griess reaction relative to control; format: functional; details: for inhibition at 50 µM: Mus musculus, RAW264.7, 24 h
[4] = tested on: RAW264.7; assay: Inhibition of LPS-induced nitric oxide production in mouse RAW264.7 cells at 25 uM after 24 hrs by Griess reaction relative to control; format: functional; details: for inhibition at 25 µM: Mus musculus, RAW264.7, 24 h
[5] = tested on: RAW264.7; assay: Inhibition of LPS-induced iNOS mRNA expression in mouse RAW264.7 cells by RT-PCR analysis; format: functional, cell-based
[6] = tested on: RAW264.7; assay: Inhibition of LPS-induced nitric oxide production in mouse RAW264.7 cells at 12.5 uM after 24 hrs by Griess reaction relative to control; format: functional
[7] = tested on: RAW264.7; assay: Inhibition of LPS-induced nitric oxide production in mouse RAW264.7 cells at 1.5625 uM after 24 hrs by Griess reaction relative to control; format: functional
[8] = tested on: RAW264.7; assay: Inhibition of LPS-induced nitric oxide production in mouse RAW264.7 cells at 6.25 uM after 24 hrs by Griess reaction relative to control; format: functional
[9] = tested on: RAW264.7; assay: Inhibition of LPS-induced nitric oxide production in mouse RAW264.7 cells at 3.125 uM after 24 hrs by Griess reaction relative to control; format: functional
[10] = tested on: RAW264.7; assay: Cytotoxicity against mouse RAW264.7 cells at 6.25 uM after 24 hrs by MTT assay; format: cell-based; details: raw264.7, 24 h
[11] = tested on: RAW264.7; assay: Inhibition of LPS-induced iNOS mRNA expression in mouse RAW264.7 cells at 100 uM by RT-PCR analysis; format: functional, cell-based

SMILES | IC50 ([1]; Mus musculus, RAW264.7, 24 h) | inhibition at 100 µM [2] | inhibition at 50 µM [3] | inhibition at 25 µM [4] | inhibition (INH) [4] | also measured
COc1ccc2c(c1O)[C@]13CCCC[C@@H]1[C@H](C2)N(C)CC3 | > 100 µM | 30.6% | 28.1% | 12.1% |  | inhibition [5]: Dose-dependent effect
COc1ccc2c(c1O)[C@@]13CCN(C)[C@@H](C2)[C@H]1C[C@@H](OC)[C@H](NS(C)(=O)=O)C3 | > 100 µM | -3.5% | -3.7% | -2.3% |  | 
COC1=C[C@@H]2[C@@H]3Cc4ccc(OC)c(O)c4[C@]2(CCN3)CC1=O | > 100 µM | 10.7% | -0.8% | -6.1% |  | 
COc1ccc2c(c1O)[C@@]13CCN(C)[C@@H](C2)[C@H]1C[C@@H](OC)[C@H](NS(=O)(=O)c1ccc(C)cc1)C3 | > 100 µM | 39.8% | 30% | 10.9% |  | inhibition [5]: Dose-dependent effect
COc1ccc2c(c1O)[C@@]13CCN(C)[C@@H](C2)[C@H]1Cc1nc2ccccc2nc1C3 | 57.9 µM |  |  | 11.4% |  | inhibition at 12.5 µM ([6]; Mus musculus, RAW264.7, 24 h): 1.3%
COc1cc(-c2cc(OC)c(O)c3c2C[C@H]2[C@H]4Cc5nc6ccccc6nc5C[C@@]34CCN2C)c2c(c1O)[C@@]13CCN(C)[C@@H](C2)[C@H]1Cc1nc2ccccc2nc1C3 | 6.3 µM |  |  |  |  | inhibition at 1.5625 µM ([7]; Mus musculus, RAW264.7, 24 h): 8.4%
COC1=C[C@@H]2[C@@H]3Cc4c(-c5cc(OC)c(O)c6c5C[C@H]5[C@H]7C=C(OC)C(=O)C[C@@]67CCN5C)cc(OC)c(O)c4[C@]2(CCN3C)CC1=O (stereo in doubt; 1a) [listing 1 of 2 here] | > 100 µM |  |  |  | -2.9% | inhibition (INH) [2]: 23.7%; inhibition (INH) [3]: 15%
COC1=C[C@@H]2[C@@H]3Cc4c(-c5cc(OC)c(O)c6c5C[C@H]5[C@H]7C=C(OC)C(=O)C[C@@]67CCN5C)cc(OC)c(O)c4[C@]2(CCN3C)CC1=O (stereo in doubt; 1a) [listing 2 of 2 here] |  |  |  |  |  | inhibition [5]: Dose-dependent effect
COC1=C[C@@H]2[C@@H]3Cc4c(-c5cc(OC)c(O)c6c5C[C@H]5[C@H]7C=C(OC)C(=O)C[C@@]67CCN5C)cc(OC)c(O)c4[C@]2(CCN3C)CC1=O (stereo in doubt; 1b) |  |  |  |  | -1.3% | inhibition (INH) [2]: -2.1%; inhibition (INH) [3]: 6.6%
COc1cc(-c2cc(OC)c(O)c3c2C[C@H]2[C@H]4CCCC[C@@]34CCN2C)c2c(c1O)[C@]13CCCC[C@@H]1[C@H](C2)N(C)CC3 (stereo in doubt; 2a) [listing 1 of 2 here] | 9.5 µM |  |  |  |  | inhibition (INH) [8]: 41.6%; inhibition (INH) [9]: 17%; inhibition (INH) [7]: 2.7%; Activity [10]: Non-toxic
COc1cc(-c2cc(OC)c(O)c3c2C[C@H]2[C@H]4CCCC[C@@]34CCN2C)c2c(c1O)[C@]13CCCC[C@@H]1[C@H](C2)N(C)CC3 (stereo in doubt; 2a) [listing 2 of 2 here] |  |  |  |  |  | inhibition [5]: Dose-dependent effect
COc1cc(-c2cc(OC)c(O)c3c2C[C@H]2[C@H]4CCCC[C@@]34CCN2C)c2c(c1O)[C@]13CCCC[C@@H]1[C@H](C2)N(C)CC3 (stereo in doubt; 2b) [listing 1 of 2 here] |  |  |  |  |  | IC50 ([1]; raw264.7): 14.2 µM; inhibition at 6.25 µM ([8]; Mus musculus, RAW264.7, 24 h): 35.2%; inhibition at 3.125 µM ([9]; Mus musculus, RAW264.7, 24 h): 16.9%; inhibition (INH) [7]: -4.4%
COc1cc(-c2cc(OC)c(O)c3c2C[C@H]2[C@H]4CCCC[C@@]34CCN2C)c2c(c1O)[C@]13CCCC[C@@H]1[C@H](C2)N(C)CC3 (stereo in doubt; 2b) [listing 2 of 2 here] |  |  |  |  |  | inhibition [5]: Dose-dependent effect
COC1=C[C@@H]2[C@@H]3Cc4c(-c5cc(OC)c(O)c6c5C[C@@H]5NCC[C@]67CC(=O)C(OC)=C[C@H]57)cc(OC)c(O)c4[C@]2(CCN3)CC1=O (stereo in doubt; 3a) | > 100 µM |  |  |  | -9.3% | inhibition (INH) [2]: 16%; inhibition (INH) [3]: -12.6%
COC1=C[C@@H]2[C@@H]3Cc4c(-c5cc(OC)c(O)c6c5C[C@@H]5NCC[C@]67CC(=O)C(OC)=C[C@H]57)cc(OC)c(O)c4[C@]2(CCN3)CC1=O (stereo in doubt; 3b) |  |  |  |  | -11.6% | inhibition (INH) [2]: -7.1%; inhibition (INH) [3]: -11%
COc1cc(-c2cc(OC)c(O)c3c2C[C@H]2[C@H]4C[C@@H](OC)[C@H](NS(=O)(=O)c5ccc(C)cc5)C[C@@]34CCN2C)c2c(c1O)[C@@]13CCN(C)[C@@H](C2)[C@H]1C[C@@H](OC)[C@H](NS(=O)(=O)c1ccc(C)cc1)C3 (stereo in doubt; 4a) | 43.5 µM |  |  |  | 4.9% | inhibition (INH) [6]: 2.6%
COc1cc(-c2cc(OC)c(O)c3c2C[C@H]2[C@H]4C[C@@H](OC)[C@H](NS(=O)(=O)c5ccc(C)cc5)C[C@@]34CCN2C)c2c(c1O)[C@@]13CCN(C)[C@@H](C2)[C@H]1C[C@@H](OC)[C@H](NS(=O)(=O)c1ccc(C)cc1)C3 (stereo in doubt; 4b) |  |  | -2.2% |  | -2.9% | IC50 ([1]; raw264.7): 72.9 µM; inhibition (INH) [6]: -4%
COc1cc(-c2cc(OC)c(O)c3c2C[C@H]2[C@H]4C[C@@H](OC)[C@H](NS(C)(=O)=O)C[C@@]34CCN2C)c2c(c1O)[C@@]13CCN(C)[C@@H](C2)[C@H]1C[C@@H](OC)[C@H](NS(C)(=O)=O)C3 (stereo in doubt; 5a) | > 100 µM | 9.3% |  |  | -0.2% | inhibition (INH) [3]: 0.2%
COc1cc(-c2cc(OC)c(O)c3c2C[C@H]2[C@H]4C[C@@H](OC)[C@H](NS(C)(=O)=O)C[C@@]34CCN2C)c2c(c1O)[C@@]13CCN(C)[C@@H](C2)[C@H]1C[C@@H](OC)[C@H](NS(C)(=O)=O)C3 (stereo in doubt; 5b) |  |  |  |  | -8.4% | inhibition (INH) [2]: 9.9%; inhibition (INH) [3]: 8.6%
N=C(N)NN [PIMAGEDINE] |  | 86% | 74.9% | 52.5% |  | 
COC1=C[C@@H]2[C@@H]3Cc4ccc(OC)c(O)c4[C@]2(CCN3C)CC1=O [SINOMENINE] | > 100 µM | 12.8% | 0.1% | -3% |  | inhibition [11]: Active
